Data taken from ChEMBL document CHEMBL4396971, “Discovery of potent and orally bioavailable indazole-based glucagon receptor antagonists for the treatment of type 2 diabetes” (Bioorg Med Chem Lett, 2019).

Assays:
[1] = Stability in mouse liver microsomes assessed as parent compound remaining at 1 uM incubated for 10 mins; type: ADME, Microsome; details: liver microsomes, read-out: Stability
[2] = Stability in rat liver microsomes assessed as parent compound remaining at 1 uM incubated for 10 mins; type: ADME, Microsome; details: read-out: Stability
[3] = Stability in human liver microsomes assessed as parent compound remaining at 1 uM incubated for 10 mins; type: ADME, Microsome; details: read-out: Stability
[4] = Stability in dog liver microsomes assessed as parent compound remaining at 1 uM incubated for 10 mins; type: ADME, Canis lupus familiaris, Microsome; details: for remaining at 10 min, 1 µM: liver microsomes, read-out: Stability
[5] = Oral bioavailability in C57 mouse at 20 mg/kg; type: ADME, organism-based; details: in vivo
[6] = biological target: Cytochrome P450 2C19 (Homo sapiens, UniProt P33261); assay: Inhibition of CYP2C19 (unknown origin) using S-Mephenytoin as substrate; type: ADME
Sequence of Cytochrome P450 2C19 (P33261 whole entry): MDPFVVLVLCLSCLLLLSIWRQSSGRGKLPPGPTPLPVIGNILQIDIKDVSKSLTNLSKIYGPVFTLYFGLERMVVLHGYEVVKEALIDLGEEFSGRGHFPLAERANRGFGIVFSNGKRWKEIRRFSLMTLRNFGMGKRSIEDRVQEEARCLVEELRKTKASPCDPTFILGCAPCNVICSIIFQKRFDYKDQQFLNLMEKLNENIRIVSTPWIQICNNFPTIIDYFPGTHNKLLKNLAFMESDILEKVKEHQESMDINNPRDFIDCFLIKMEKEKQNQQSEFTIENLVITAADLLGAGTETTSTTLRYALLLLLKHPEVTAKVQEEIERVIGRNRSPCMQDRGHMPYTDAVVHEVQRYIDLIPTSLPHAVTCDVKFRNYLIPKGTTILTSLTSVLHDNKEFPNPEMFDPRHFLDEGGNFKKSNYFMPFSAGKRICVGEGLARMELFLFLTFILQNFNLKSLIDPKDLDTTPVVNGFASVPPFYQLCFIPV

[7] = Half life in dog at 10 mg/kg, po; type: ADME, organism-based, Canis lupus familiaris; details: in vivo
[8] = Half life in Sprague-Dawley rat at 10 mg/kg, po; type: ADME, organism-based; details: in vivo
[9] = AUClast in dog at 2 mg/kg, iv or 10 mg/kg, po; type: ADME, organism-based, Canis lupus familiaris; details: in vivo
[10] = Protein binding in human plasma at 1 uM; type: ADME, cell-free; details: read-out: PPB
[11] = biological target: T1, Cytochrome P450 3A4 (Homo sapiens, UniProt P08684); assay: Inhibition of CYP3A4 (unknown origin) using midazolam as substrate; type: ADME
T1 sequence (P08684 whole entry): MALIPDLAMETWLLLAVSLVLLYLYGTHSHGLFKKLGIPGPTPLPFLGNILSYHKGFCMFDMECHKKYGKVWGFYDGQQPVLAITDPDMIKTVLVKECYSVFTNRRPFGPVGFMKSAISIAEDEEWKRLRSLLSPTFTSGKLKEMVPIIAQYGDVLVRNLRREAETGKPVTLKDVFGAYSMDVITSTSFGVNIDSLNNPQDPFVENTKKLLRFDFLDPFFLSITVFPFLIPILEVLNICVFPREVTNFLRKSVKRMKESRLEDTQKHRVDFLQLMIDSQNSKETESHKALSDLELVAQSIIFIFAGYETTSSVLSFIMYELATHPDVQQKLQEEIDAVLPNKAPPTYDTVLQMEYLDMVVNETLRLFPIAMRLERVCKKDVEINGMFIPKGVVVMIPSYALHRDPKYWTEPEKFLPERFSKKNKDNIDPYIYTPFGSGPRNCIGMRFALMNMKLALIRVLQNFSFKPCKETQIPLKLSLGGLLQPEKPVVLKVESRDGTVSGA

[12] = Cmax in C57 mouse at 5 mg/kg, iv or 20 mg/kg, po; type: ADME, organism-based; details: in vivo
[13] = Cmax in dog at 2 mg/kg, iv or 10 mg/kg, po; type: ADME, organism-based, Canis lupus familiaris; details: in vivo
[14] = Half life in C57 mouse at 20 mg/kg, po; type: ADME, organism-based; details: in vivo
[15] = Oral bioavailability in Sprague-Dawley rat at 10 mg/kg; type: ADME, organism-based; details: in vivo
[16] = biological target: Cytochrome P450 2C9 (Homo sapiens, UniProt P11712); assay: Inhibition of CYP2C9 (unknown origin) using tolbutamide as substrate; type: ADME
Sequence of Cytochrome P450 2C9 (P11712 whole entry): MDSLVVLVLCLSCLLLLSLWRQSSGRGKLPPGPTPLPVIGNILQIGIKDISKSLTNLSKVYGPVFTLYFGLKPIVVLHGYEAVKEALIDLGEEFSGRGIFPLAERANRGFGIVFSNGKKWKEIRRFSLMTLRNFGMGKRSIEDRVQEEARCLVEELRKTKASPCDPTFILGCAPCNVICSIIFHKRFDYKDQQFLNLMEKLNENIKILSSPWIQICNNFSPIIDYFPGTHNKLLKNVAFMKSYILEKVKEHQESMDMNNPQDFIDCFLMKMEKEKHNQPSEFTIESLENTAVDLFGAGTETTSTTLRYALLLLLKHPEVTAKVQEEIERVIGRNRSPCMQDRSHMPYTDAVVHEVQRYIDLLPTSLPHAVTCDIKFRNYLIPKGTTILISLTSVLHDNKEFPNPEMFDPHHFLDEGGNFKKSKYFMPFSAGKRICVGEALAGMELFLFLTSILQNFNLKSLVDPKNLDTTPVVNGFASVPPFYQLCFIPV

[17] = biological target: T2, Cytochrome P450 1A2 (Homo sapiens, UniProt P05177); assay: Inhibition of CYP1A2 (unknown origin) using phenacetin as substrate; type: ADME
T2 sequence (P05177 whole entry): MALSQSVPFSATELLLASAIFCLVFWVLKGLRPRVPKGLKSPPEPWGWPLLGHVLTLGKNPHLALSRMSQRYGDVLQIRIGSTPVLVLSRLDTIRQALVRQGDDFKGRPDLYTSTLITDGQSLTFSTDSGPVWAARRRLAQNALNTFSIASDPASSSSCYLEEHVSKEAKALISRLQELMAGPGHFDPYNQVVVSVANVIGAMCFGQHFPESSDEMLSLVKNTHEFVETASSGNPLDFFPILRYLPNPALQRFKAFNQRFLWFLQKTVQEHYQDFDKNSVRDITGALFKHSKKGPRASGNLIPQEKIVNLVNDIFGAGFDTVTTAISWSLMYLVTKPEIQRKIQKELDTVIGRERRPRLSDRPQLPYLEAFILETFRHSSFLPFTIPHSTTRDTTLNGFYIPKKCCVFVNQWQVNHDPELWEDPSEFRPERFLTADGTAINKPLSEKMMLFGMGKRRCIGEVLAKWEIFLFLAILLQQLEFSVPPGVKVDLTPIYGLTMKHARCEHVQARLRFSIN

[18] = Volume of distribution at steady state in Sprague-Dawley rat at 2 mg/kg, iv or 10 mg/kg, po; type: ADME, organism-based; details: in vivo, read-out: Vdss
[19] = Clearance in dog at 2 mg/kg, iv or 10 mg/kg, po; type: ADME, organism-based, Canis lupus familiaris; details: in vivo
[20] = Clearance in Sprague-Dawley rat at 2 mg/kg, iv or 10 mg/kg, po; type: ADME, organism-based; details: in vivo
[21] = Antagonist activity at GCGR in dog hepatocytes assessed as inhibition of glucagon-induced cAMP by LANCE TR-FRET assay; type: cell-based, Canis lupus familiaris
[22] = Half life in dog at 2 mg/kg, iv; type: ADME, organism-based, Canis lupus familiaris; details: in vivo
[23] = Half life in C57 mouse at 5 mg/kg, iv; type: ADME, organism-based; details: in vivo
[24] = AUClast in C57 mouse at 5 mg/kg, iv or 20 mg/kg, po; type: ADME, organism-based; details: in vivo
[25] = Clearance in C57 mouse at 5 mg/kg, iv or 20 mg/kg, po; type: ADME, organism-based; details: in vivo
[26] = biological target: Cytochrome P450 2D6 (Homo sapiens, UniProt P10635); assay: Inhibition of CYP2D6 (unknown origin) using dextromethorphan as substrate; type: ADME
Sequence of Cytochrome P450 2D6 (P10635 whole entry): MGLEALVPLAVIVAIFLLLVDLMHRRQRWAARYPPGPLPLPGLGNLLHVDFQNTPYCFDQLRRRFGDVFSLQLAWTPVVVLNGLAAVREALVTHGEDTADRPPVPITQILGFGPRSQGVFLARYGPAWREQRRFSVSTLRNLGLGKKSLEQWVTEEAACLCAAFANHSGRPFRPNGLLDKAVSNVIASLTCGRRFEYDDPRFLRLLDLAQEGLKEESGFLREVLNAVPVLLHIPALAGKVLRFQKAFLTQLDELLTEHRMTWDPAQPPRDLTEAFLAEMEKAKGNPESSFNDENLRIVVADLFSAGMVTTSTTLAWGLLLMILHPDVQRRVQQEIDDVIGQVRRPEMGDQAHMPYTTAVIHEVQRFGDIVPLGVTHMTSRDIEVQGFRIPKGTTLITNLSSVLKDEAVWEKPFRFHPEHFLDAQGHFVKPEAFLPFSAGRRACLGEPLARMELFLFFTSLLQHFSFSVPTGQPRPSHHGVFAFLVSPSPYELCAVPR

[27] = Cmax in Sprague-Dawley rat at 2 mg/kg, iv or 10 mg/kg, po; type: ADME, organism-based; details: in vivo
[28] = biological target: T1, Cytochrome P450 3A4; assay: Inhibition of CYP3A4 (unknown origin) using testosterone as substrate; type: ADME
[29] = AUClast in Sprague-Dawley rat at 2 mg/kg, iv or 10 mg/kg, po; type: ADME, organism-based; details: in vivo
[30] = Oral bioavailability in dog at 10 mg/kg; type: ADME, organism-based, Canis lupus familiaris; details: in vivo
[31] = Volume of distribution at steady state in dog at 2 mg/kg, iv or 10 mg/kg, po; type: ADME, organism-based, Canis lupus familiaris; details: in vivo, read-out: Vdss
[32] = Half life in Sprague-Dawley rat at 2 mg/kg, iv; type: ADME, organism-based; details: in vivo
[33] = Volume of distribution at steady state in C57 mouse at 5 mg/kg, iv or 20 mg/kg, po; type: ADME, organism-based; details: in vivo, read-out: Vdss
[34] = biological target: T3, Glucagon receptor (Homo sapiens, UniProt P47871); assay: Inhibition of human full length GCGR transfected in HEK293 cells assessed as reduction in glucagon-induced cAMP response by LANCE TR-FRET assay; type: functional, cell-based
T3 sequence (P47871 whole entry): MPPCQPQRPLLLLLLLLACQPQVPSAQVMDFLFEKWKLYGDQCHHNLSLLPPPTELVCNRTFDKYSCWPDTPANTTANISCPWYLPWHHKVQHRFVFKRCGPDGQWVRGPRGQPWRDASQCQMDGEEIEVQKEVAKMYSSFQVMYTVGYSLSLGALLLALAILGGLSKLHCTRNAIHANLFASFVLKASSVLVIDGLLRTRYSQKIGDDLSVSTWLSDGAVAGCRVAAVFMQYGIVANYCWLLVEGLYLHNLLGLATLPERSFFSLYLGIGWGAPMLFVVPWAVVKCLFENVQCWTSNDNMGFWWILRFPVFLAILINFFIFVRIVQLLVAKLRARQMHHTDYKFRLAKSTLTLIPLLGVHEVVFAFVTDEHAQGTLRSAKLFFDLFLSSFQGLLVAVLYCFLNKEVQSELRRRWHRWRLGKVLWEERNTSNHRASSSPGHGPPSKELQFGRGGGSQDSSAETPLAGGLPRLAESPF

[35] = biological target: T3, Glucagon receptor; assay: Potency index, ratio of Ki of 3-[[4-[(1R)-1-[5-[2-Chloro4-(trifluoromethyl)phenyl]indazol-1-yl]-3-methyl-butyl]benzoyl]amino]propanoic acid to Ki of compound for human full length GCGR transfected in HEK293 cells assessed as reduction in glucagon-induced cAMP response by LANCE TR-FRET assay; type: functional, cell-based

## COc1c(-c2ccc(C(F)(F)F)cc2Cl)ccc2nn([C@@H](CC(C)C)c3ccc(C(=O)NCCC(=O)O)cc3)cc12
[1]
  remaining at 10 min, 1 µM: 82%
[2]
  remaining at 10 min, 1 µM: 84%
[3]
  remaining at 10 min, 1 µM: 89%
[4]
  remaining at 10 min, 1 µM: 76%

## Cc1cc(C(F)(F)F)ccc1-c1cc2cn([C@@H](CC(C)C)c3ccc(C(=O)NCCC(=O)O)cc3)nc2cc1C
[5]
  bioavailability: 74.4%
[6]
  IC50: > 10 µM
[7]
  half-life: 20.2 h
[8]
  half-life: 4.3 h
[9]
  AUC(0-t): 468 µM·h
[10]
  fraction unbound at 1 µM: 0.0001
[11]
  IC50: > 10 µM
[12]
  Cmax: 7.9 µM
[13]
  Cmax: 35 µM
[14]
  half-life: 5 h
[15]
  bioavailability: 32.3%
[16]
  IC50: > 10 µM
[17]
  IC50: > 10 µM
[18]
  Vd: 2.94 L/kg
[1]
  remaining at 10 min, 1 µM: 79%
[2]
  remaining at 10 min, 1 µM: 113%
[19]
  clearance: 0.19 mL/min/kg
[20]
  clearance: 12.7 mL/min/kg
[21]
  Ki: 0.65 µM
[22]
  half-life: 21.7 h
[23]
  half-life: 4.5 h
[24]
  AUC(0-t): 90.1 µM·h
[25]
  clearance: 4.78 mL/min/kg
[26]
  IC50: > 10 µM
[27]
  Cmax: 1.1 µM
[28]
  IC50: > 10 µM
[29]
  AUC(0-t): 9.2 µM·h
[30]
  bioavailability: 45%
[31]
  Vd: 0.26 L/kg
[3]
  remaining at 10 min, 1 µM: 57%
[32]
  half-life: 3.7 h
[4]
  remaining at 10 min, 1 µM: 68%
[33]
  Vd: 1.56 L/kg

## COc1c(-c2ccc(C(F)(F)F)cc2Cl)ccc2nn([C@H](CC(C)C)c3ccc(C(=O)NCCC(=O)O)cc3)cc12
[1]
  remaining at 10 min, 1 µM: 76%
[2]
  remaining at 10 min, 1 µM: 100%
[3]
  remaining at 10 min, 1 µM: 116%
[4]
  remaining at 10 min, 1 µM: 79%

## CC(C)CC(c1ccc(C(=O)NCCC(=O)O)cc1)n1ncc2cc(-c3ccc(C(F)(F)F)cc3)ccc21 (racemic)
[34]
  Ki: 0.125 µM

## CC(C)C[C@@H](c1ccc(C(=O)NCCC(=O)O)cc1)n1ncc2cc(-c3ccc(C(F)(F)F)cc3)ccc21
[34]
  Ki: 0.46 µM

## COc1c(-c2ccc(C(F)(F)F)cc2Cl)ccc2c1cnn2[C@@H](CC(C)C)c1ccc(C(=O)NCCC(=O)O)cc1
[1]
  remaining at 10 min, 1 µM: 87%
[2]
  remaining at 10 min, 1 µM: 97%
[3]
  remaining at 10 min, 1 µM: 93%
[4]
  remaining at 10 min, 1 µM: 64%

## CC(C)C[C@@H](c1ccc(C(=O)NCCC(=O)O)cc1)n1ncc2cc(-c3ccc(C(F)(F)F)cc3Cl)ccc21
[1]
  remaining at 10 min, 1 µM: 107%
[2]
  remaining at 10 min, 1 µM: 81%
[35]
  Ratio Ki: 15
[3]
  remaining at 10 min, 1 µM: 59%
[4]; microsomes, 10 min, 1 µM
  Stability: 121%
